Source: patent publication EP1276895B1, “METHOD FOR THE IDENTIFICATION OF ACTIVE SITE PROTEASE INACTIVATORS” (THE UNIVERSITY OF GEORGIA RESEARCH FOUNDATION, INC., priority 2000, dated 2001)
Residues, ends and D or L forms follow the SMILES beside them. *: point of attachment. AFC = O=c1cc(C(F)(F)F)c2ccc(N*)cc2o1; Cbz = O=C(OCc1ccccc1)*; CH2F = FC*

What was measured:
[1] = system: purified Taenia solium cysteine protease; test: Inhibition assay of protease inactivators against the high Vmax cocktail, EC100 and Ki ranking (Step VII B); type: biochemical; details: for ranking of protease inactivators by EC100: dilution study, nanomolar levels; for % Inhibition of T. solium CP in vitro: concentration not stated in Table 4; for Ki of protease inactivator: nonlinear fitting and Dixon plot, values not reported
Excerpt: Once the protease inactivators were synthesized in the organic laboratory, they were to be tested for the lowest efficacious concentrations at which they induced 100% inhibition of the target protease (EC100). The top percent cocktail that was employed in the final vehicle selection step of Step III was employed as the source of competition for the inhibitors. In this case, this was the […] which was comprised of Z-FR-AFC, Z-FAR-AFC, Z-AP-AFC, Z-AAK-AFC, and Z-VLR-AFC. The final result would be a ranking of transition state candidate protease inactivators with a high ranking directly correlating to a low EC100 value. The following steps describe the assay:
Step A: Initial Screening. To set up the test control, each protease inactivator was first incubated with the […] (which provided the final differentiation of vehicles in Step III). To begin with, the protease inactivator was incubated at a concentration of 3 X 10^-9M in 500 ul of assay buffer ([…], pH 4.9 supplemented with 10mM L-cysteine). This concentration was determined, after a series of inhibitor dilutions identified, to be the best inhibitor concentration at which a differentiation in inhibitor potential could be noted. Next, a concentration equal to 4 X 10^-5M for each of the individual cocktail components, was added to the mix. The components were allowed to equilibrate for a period of 30 minutes. Finally, active purified enzyme was added to the tubes at a concentration which was always at least 50 times less than the concentration of the lowest concentration in the mix (to provide saturating conditions.) This concentration varied from purification to purification and the amount added depended upon the yield and specific activity of the purified protease.
Positive controls were set up similarly as described for test controls, except that solvent was added in substitution for the protease inactivator (in a volume equal to the […] volume addition). All of the protease inactivators could be dissolved in dimethylsulfoxide (DMSO), and therefore, this was the solvent of choice. Negative controls were set up by adding the protease inactivator and the cocktail substrates in a tube, without the protease. All potential non-proteolytic induced liberation of AFC was therefore controlled for in this tube (a feature which also insured stability of the AFC substrates, since these substrates will freely liberate AFC when unstable).
All controls were set up in triplicate, and experiments repeated a minimum of five times. The assays were incubated at 37°C, overnight. Percent inhibition was calculated as: % Inhibition = ((AFC positive for ʺSIʺ-AFC negative for ʺSIʺ)-(AFC test-AFC negative for ʺSIʺ))/(AFC positive for ʺSIʺ-AFC negative for ʺSIʺ) × 100 [formula]
Because of this, a dilution study was required in order to determine a viable ranking. Thus, the concentration of each of the protease inactivators was lowered with a dose response setup until the most efficacious concentration for 100% inhibition (EC100) could be determined. […] The final result of the assay was a ranked candidate list of protease inactivators. A lower EC100 was attributable to a higher ranking and vice-versa.
In order to determine Ki, all of the high Vmax cocktail substrates were employed for Ki determination (since Ki of the inhibitor for the enzyme is the same regardless of the substrate). To insure the highest accuracy, Ki was to be determined upon a minimum of at least three of the high Kcat substrates. Nonlinear fitting and the Dixon plot were both employed to determine Ki of the top ranked protease inactivators. A further plot was constructed using either Eadie Hofstee as well as Hanes to determine the mode of inhibition. These methods were used in order to determine the type of inhibition.

Taenia crassiceps cysts = test: Short-term prophylactic protection of BALB/c mice from cysticercosis infection; type: in vivo; details: for % Prophylactic protection of BALB/c mice: pre-injected two days, 10 T. crassiceps cysts/mouse, dosed daily for four weeks, cysts counted after one month, versus untreated controls
T. crassiceps cysts [2] = test: Therapeutic protection study in BALB/c mice; type: in vivo, Taenia crassiceps; details: inhibitor treatment began two weeks after infection with T. crassiceps cysts
Excerpt: Mice in all groups survived without noticeable side effects (e.g., coat condition, tail dragging or paresis, etc).

T. crassiceps cysts [3] = type: in vivo, Taenia crassiceps; details: for Percent protection, long-term: BALB/c mice, 5 mice/group, intraperitoneal, treated every day for 30 days post-challenge, left untreated for 5 months, reduction of total cyst number versus controls; for side effects in treated mice, long-term: in vivo
[4] = system: normal BALB/c mouse splenocytes; test: Mouse splenocyte proliferation (3H-thymidine incorporation) with inhibitor alone or inhibitor and Con-A; type: cell-based; details: for proliferative response of splenocytes (3H-thymidine incorporation): inhibitor alone; for responsiveness of splenocytes to Con-A: inhibitor and Con-A; for toxicity to normal BALB/c mouse splenocytes in vitro: preliminary results
[5] = system: purified Taenia solium cysteine protease; test: Competitor assay of low Vmax substrates (vehicles) against high Vmax substrate cocktails (Step III), purified protease; type: biochemical; details: robustness of inhibition

| Compound | ranking of protease inactivators by EC100 [1] | % Inhibition of T. solium CP in vitro [1] [%] | Ki of protease inactivator [1] | % Prophylactic protection of BALB/c mice (Taenia crassiceps cysts) | % Prophylactic protection of BALB/c mice (Taenia crassiceps cysts; listed as Leucine-Leucine-Leucine-Fluoromethylketone) [%] | % Therapeutic protection of BALB/c mice (T. crassiceps cysts [2]) [%] | Percent protection, long-term (T. crassiceps cysts [3]) [%] | side effects in treated mice, long-term (T. crassiceps cysts [3]) | proliferative response of splenocytes (3H-thymidine incorporation) [4] | responsiveness of splenocytes to Con-A [4] | responsiveness of splenocytes to Con-A ([4]; listed as LLL-FMK) | toxicity to normal BALB/c mouse splenocytes in vitro [4] | percentage drop in inhibition between the 1.4% and the 7.4% cocktail [5] [%] | protection from cysticercosis infection, subsequent repeat of the prophylactic experiment (Taenia crassiceps cysts; identical prophylactic experiment repeated) | % Prophylactic protection of BALB/c mice (Taenia crassiceps cysts; listed as Leucine-Leucine-Tyrosine-Fluoromethylketone) | side effects / inhibitor toxicity in treated mice, short-term (Taenia crassiceps cysts; visual inspection (coat condition, tail dragging or paresis)) | responsiveness of splenocytes to Con-A ([4]; listed as LLY-FMK) |
| --- | --- | --- | --- | --- | --- | --- | --- | --- | --- | --- | --- | --- | --- | --- | --- | --- | --- |
| CC(C)C[C@H](NC(=O)[C@H](CC(C)C)NC(=O)[C@H](CC(C)C)NC(=O)OCc1ccccc1)C(=O)CF [Z-LLL-FMK, Z-Leu-Leu-Leu-fluoromethylketone] (Cbz-Leu-Leu-Leu-CH2F) | top inhibitors | 100 | lowest Ki values | 100% | 100 | 60 | 80 | no side effects were noted | do not induce a proliferative response | unaffected | do not affect the responsiveness | nontoxic | – | – | – | – | – |
| CC(C)C[C@H](NC(=O)OCc1ccccc1)C(=O)N[C@@H](CC(C)C)C(=O)N[C@@H](CC(C)C)C(=O)Nc1ccc2c(C(F)(F)F)cc(=O)oc2c1 [Z-LLL-AFC, Z-Leu-Leu-Leu-AFC] (Cbz-Leu-Leu-Leu-{AFC}) | – | – | – | – | – | – | – | – | – | – | – | – | 25 | – | – | – | – |
| CC(C)C[C@H](NC(=O)OCc1ccccc1)C(=O)N[C@@H](CC(C)C)C(=O)N[C@@H](Cc1ccc(O)cc1)C(=O)CF [Z-LLY-FMK, Z-Leu-Leu-Tyr-FMK] (Cbz-Leu-Leu-Tyr-CH2F) | top inhibitors | 97 | lowest Ki values | 85-97% | – | – | 95 | no side effects were noted | do not induce a proliferative response | unaffected | – | nontoxic | – | 75%-90% | 85-97% | no mice showed effects of inhibitor toxicity | do not affect the responsiveness |
